Test results: patent US5567692A, “9-[(substituted glycyl) amido)]-6-demethyl-6-deoxytetracyclines” (priority 1995, dated 1996)
Structures can show the parent of a compound that is named as a salt. Where two headings read alike, the source gives them in different places.

Assays:
[1] = test system: E. coli J3272 Tet sens; experiment: MIC, agar dilution; format: cell-based; conditions: Escherichia coli, J3272TETSENS, 18 h
[2] = test system: S. aureus IVES 2943; experiment: MIC, agar dilution; format: cell-based; conditions: Staphylococcus aureus, IVES2943, 18 h
[3] = test system: E. coli UBMS 90-4 Tet M; experiment: microbe, parasite or virus in culture; format: cell-based; conditions: Escherichia coli, UBMS904TETM, 18 h
[4] = test system: X. maltophilia NEMC 87210; experiment: MIC, agar dilution; format: cell-based; conditions: Stenotrophomonas maltophilia, NEMC87210, 18 h
[5] = test system: S. aureus IVES 1983; experiment: MIC, agar dilution; format: cell-based; conditions: Staphylococcus aureus, IVES1983, 18 h
[6] = test system: Ps. aeruginosa ATCC 27853; experiment: MIC, agar dilution; format: cell-based
[7] = test system: E. coli J2175; experiment: MIC, agar dilution; format: cell-based; conditions: Escherichia coli, 18 h, read-out: MIC
[8] = test system: S. aureus ATCC 29213; experiment: MIC, agar dilution; format: cell-based; conditions: Staphylococcus aureus, ATCC29213, 18 h, S. aureus ATCC 29213
[9] = test system: Staphylococcus aureus strain Smith (tetracycline sensitive); experiment: Acute lethal infection in mice, S. aureus Smith; format: in vivo; conditions: for ED50: Staphylococcus aureus, 168 h, mice, S. aureus Smith (Sens), 7 day survival, read-out: ED50; for in vivo activity (in words): tested intravenously against the minocycline sensitive organism S. aureus Smith
[10] = test system: E. coli MC 4100 TNIOC Tet B; experiment: microbe, parasite or virus in culture; format: cell-based; conditions: Escherichia coli, 18 h
[11] = test system: S. aureus NEMC 8769; experiment: MIC, agar dilution; format: cell-based; conditions: Staphylococcus aureus, NEMC8769, 18 h
[12] = test system: E. coli #311 (MP); experiment: MIC, agar dilution; format: cell-based
[13] = test system: S. hemolyticus AVHAH 88-3; experiment: MIC, agar dilution; format: cell-based; conditions: Streptococcus pyogenes, AVHAH883, 18 h
[14] = test system: E. coli UBMS 90-5; experiment: microbe, parasite or virus in culture; format: cell-based; conditions: E. coli UBMS 90-5
[15] = test system: E. coli UBMS 89-2 Tet sens.; experiment: MIC, agar dilution; format: cell-based; conditions: Escherichia coli, 18 h
[16] = test system: E. coli ATCC 25922; experiment: MIC, agar dilution; format: cell-based; conditions: Escherichia coli, ATCC25922, 18 h
[17] = test system: E. coli UBMS 88-1 Tet B; experiment: microbe, parasite or virus in culture; format: cell-based; conditions: Escherichia coli, UBMS881TETB, 18 h
[18] = test system: E. coli J3272 Tet C; experiment: microbe, parasite or virus in culture; format: cell-based
[19] = test system: E. coli UBMS 89-1 Tet M; experiment: microbe, parasite or virus in culture; format: cell-based; conditions: Escherichia coli, UBMS891TETM, 18 h
[20] = test system: S. aureus UBMS 90-3; experiment: MIC, agar dilution; format: cell-based; conditions: Staphylococcus aureus, UBMS903, 18 h
[21] = test system: S. aureus UBMS 90-1 Tet M; experiment: microbe, parasite or virus in culture; format: cell-based; conditions: Staphylococcus aureus, UBMS901TETM, 18 h
[22] = test system: S. marcescens FPOR 8733; experiment: MIC, agar dilution; format: cell-based; conditions: Serratia marcescens, FPOR8733, 18 h
[23] = test system: S. aureus ROSE (MP); experiment: MIC, agar dilution; format: cell-based; conditions: Staphylococcus aureus, 18 h
[24] = test system: E. coli PRP1 Tet A; experiment: microbe, parasite or virus in culture; format: cell-based
[25] = test system: S. aureus UBMS 88-7 Tet K; experiment: microbe, parasite or virus in culture; format: cell-based; conditions: Staphylococcus aureus, UBMS887TETK, 18 h
[26] = test system: S. aureus UBMS 90-2 Tet M; experiment: microbe, parasite or virus in culture; format: cell-based; conditions: Staphylococcus aureus, UBMS902TETM, 18 h
[27] = test system: Enterococcus 12201; experiment: MIC, agar dilution; format: cell-based; conditions: Enterococcus, 12201, 18 h
[28] = test system: E. faecalis ATCC 29212; experiment: MIC, agar dilution; format: cell-based; conditions: Enterococcus faecalis, ATCC29212, 18 h
[29] = test system: E. coli MC 4100 Tet sens.; experiment: MIC, agar dilution; format: cell-based; conditions: Escherichia coli, 18 h
[30] = test system: S. aureus UBMS 88-5 Tet M; experiment: microbe, parasite or virus in culture; format: cell-based; conditions: Staphylococcus aureus, UBMS885TETM, 18 h
[31] = test system: E. coli J3272 Tet D; experiment: microbe, parasite or virus in culture; format: cell-based; conditions: Escherichia coli, J3272TETD, 18 h
[32] = test system: S. aureus UBMS 88-4; experiment: MIC, agar dilution; format: cell-based; conditions: Staphylococcus aureus, UBMS884, 18 h
[33] = test system: E. coli BAJ9003 IMP MUT; experiment: microbe, parasite or virus in culture; format: cell-based; conditions: Escherichia coli, BAJ9003IMPMUT, 18 h
[34] = test system: S. aureus SMITH (MP); experiment: MIC, agar dilution; format: cell-based; conditions: Staphylococcus aureus, 18 h
[35] = Pseudomonas aeruginosa, ATCC27853, 18 h, Ps. aeruginosa ATCC 27853, read-out: MIC
[36] = Escherichia coli, UBMS905, 18 h, read-out: MIC
[37] = Escherichia coli, J3272TETC, 18 h
[38] = Escherichia coli, PRP1TETA, 18 h

SMILES	MIC [3] [mg/L]	MIC [5] [mg/L]	MIC [7] [mg/L]	MIC [8] [mg/L]	ED50 ([9]; po, Oral) [mg/kg]	in vivo activity (in words) [9]	MIC [10] [mg/L]	MIC [15] [mg/L]	MIC [16] [mg/L]	MIC [17] [mg/L]	MIC [19] [mg/L]	MIC [21] [mg/L]	MIC ([22]; read-out: MIC) [mg/L]	MIC [23] [mg/L]	MIC [25] [mg/L]	MIC [26] [mg/L]	MIC [2] [mg/L]	MIC [27] [mg/L]	MIC [4] [mg/L]	MIC [30] [mg/L]	also measured
CN(C)CC(=O)Nc1ccc2c(c1O)C(=O)C1=C(O)[C@]3(O)C(=O)C(C(N)=O)=C(O)[C@@H](N(C)C)C3CC1C2 (stereo partly drawn) [AA, [4S-(4alpha,12aalpha)]-4-(Dimethylamino)-9-[[(dimethylamino)acetyl]amino]-1,4,4a,5,5a,6,11,12a-octahydro-3,10,12,12a-tetrahydroxy-1,11-dioxo-2-naphthacenecarboxamide disulfate]	0.25	2	0.25	< 0.015	> 16	very good in vivo activity	0.25	0.25	0.25	0.25	0.25	0.25	4	4	1						MIC [1]: 0.25 mg/L; MIC ([2]; S. aureus IVES 2943, read-out: MIC): 1 mg/L; MIC ([4]; X. maltophilia NEMC 87210, read-out: MIC): 2 mg/L; MIC ([6]; Ps. aeruginosa ATCC 27853): 16 mg/L; ED50 ([9]; iv, Intraveneous): 0.5 to 1 mg/kg; MIC [11]: 0.03 mg/L; MIC ([12]; E. coli #311 (MP)): 0.50 mg/L; MIC ([13]; S. hemolyticus AVHAH 88-3, read-out: MIC): 0.5 mg/L; MIC [14]: 0.25 mg/L; MIC [18]: 1 mg/L; MIC ([20]; S. aureus UBMS 90-3): 0.06 mg/L; MIC [24]: 2 mg/L
CCCCCCNCC(=O)Nc1ccc2c(c1O)C(=O)C1=C(O)[C@]3(O)C(=O)C(C(N)=O)=C(O)[C@@H](N(C)C)C3CC1C2 (stereo partly drawn) [G, [4S-(4alpha,12aalpha)]-4-(Dimethylamino)-9-[[(hexylamino)acetyl]amino]-1,4,4a,5,5a,6,11,12a-octahydro-3,10,12,12a-tetrahydroxy-1,11-dioxo-2-naphthacenecarboxamide dihydrochloride]	0.5	1	1	0.5	> 16	very good in vivo activity	1	1	1	1	0.25	1	8		1	0.25	2	0.25	1	0.5	MIC ([28]; E. faecalis ATCC 29212, read-out: MIC): 0.12 mg/L; MIC [6, 35]: 32 mg/L; ED50 ([9]; iv, Intraveneous): > 4 mg/kg; MIC ([11]; read-out: MIC): 0.12 mg/L; MIC [29]: 0.12 mg/L; MIC ([12]; Escherichia coli, 18 h): 1 mg/L; MIC [13]: 2 mg/L; MIC [14, 36]: 1 mg/L; MIC [31]: 0.5 mg/L; MIC [32]: 0.25 mg/L; MIC [33]: 0.12 mg/L; MIC [18, 37]: 1 mg/L; MIC [20]: 0.25 mg/L; MIC [34]: 0.25 mg/L; MIC ([23]; read-out: MIC): 4 mg/L; MIC [24, 38]: 1 mg/L
CN(C)[C@@H]1C(O)=C(C(N)=O)C(=O)[C@@]2(O)C(O)=C3C(=O)c4c(ccc(NC(=O)CNCC5CC5)c4O)CC3CC12 (stereo partly drawn) [Q, [4S-(4alpha,12aalpha)]-9-[[[(Cyclopropylmethyl)amino]acetyl]amino]-4-(dimethylamino)-1,4,4a,5,5a,6,11,12a-octahydro-3,10,12,12a-tetrahydroxy-1,11-dioxo-2-naphthacenecarboxamide dihydrochloride]	0.25	4	1	0.5	> 16	very good in vivo activity	1	1	0.5	0.5	0.5	0.5	8	16	8	0.5	8	0.5	4	0.5	MIC [28]: 0.25 mg/L; MIC ([6]; Pseudomonas aeruginosa, ATCC27853, 18 h): 16 mg/L; MIC [11]: 0.5 mg/L; MIC [29]: 0.25 mg/L; MIC ([12]; Escherichia coli, 18 h): 1 mg/L; MIC [13]: 4 mg/L; MIC [14, 36]: 0.5 mg/L; MIC [31]: 0.25 mg/L; MIC [32]: 0.5 mg/L; MIC [33]: 0.25 mg/L; MIC [18, 37]: 0.5 mg/L; MIC [20]: 0.5 mg/L; MIC [34]: 0.5 mg/L; MIC [24, 38]: 2 mg/L
CN(C)[C@@H]1C(O)=C(C(N)=O)C(=O)[C@@]2(O)C(O)=C3C(=O)c4c(ccc(NC(=O)CBr)c4O)CC3CC12 (stereo partly drawn) [R, [4S-(4alpha,12aalpha)]-9-((Bromoacetyl)amino]-4-(dimethylamino)-1,4,4a,5,5a,6,11,12a-octahydro-3,10,12,12a-tetrahydroxy-1,11-dioxo-2-naphthacenecarboxamide monohydrochloride]	32	16	32	1			> 32	32	16	> 32	8	1		16	8	2	16	4	16	2	MIC [1]: 32 mg/L; MIC [28]: 2 mg/L; MIC [6, 35]: > 32 mg/L; MIC ([11]; read-out: MIC): 0.25 mg/L; MIC ([12]; Escherichia coli, 18 h): 16 mg/L; MIC [13]: 8 mg/L; MIC [14, 36]: 32 mg/L; MIC [31]: > 32 mg/L; MIC ([32]; S. aureus UBMS 88-4, read-out: MIC): 0.5 mg/L; MIC [33]: 1 mg/L; MIC [18, 37]: > 32 mg/L; MIC [20]: 1 mg/L; MIC [34]: 1 mg/L; MIC [22]: > 32 mg/L; MIC [24, 38]: > 32 mg/L
